Tests used:
LUHMES cells = experiment: Mitochondrial activity by MTT reduction; type: cell-based, human; settings: 24 h; for MTT reduction: protective concentration of compound + 20 nM annonacin
Experimental: Mitochondrial activity was estimated by the reduction of MTT (3-(4,5-dimethylthiazol-2-yl)-2,5-diphenyltetrazolium, Sigma-Aldrich). Briefly, LUHMES cells were seeded on PLO/FN-coated 48-well microplates, in triplicates. After a 24 h treatment with 20 nM of annonacin and the protective concentrations of Nrf2-pathway activators in glucose-reduced medium, cells were incubated with 0.5 mg/ml of MTT dissolved in PBS, at 37 °C for 30 min. After that, the medium was removed and the plate was frozen at -80 °C for 1 h, for cell lysing. Next, the plate was thawed and the MTT crystals were completely dissolved in 250 µl of DMSO with vigorous shaking. The absorbance was measured on a FLUOstar® Omega plate reader at λ = 590 nm, using λ = 630 nm absorbance as a background correction. The obtained results were analyzed with the MARS data analysis software (BMG LabTech). After background subtraction, the data were expressed as a percentage of MTT reduction relative to the control (DMSO-treated) condition. Determination of cellular ATP levels was done by using the ViaLight™ plus kit (Lonza, Basel, Switzerland), following the manufacturer’s instructions. Cells were seeded on PLO/FN-coated 48-well microplates and the pharmacological treatments were done similarly as to the assessment of the MTT reduction. On the next day, the medium was removed and cells were washed once with warm HBSS and rested in 210 µl HBSS. The plate was left to reach RT before adding 70 µl cell lysis reagent to each well, provided by the kit. […] The plate was incubated in the dark for 10 min at RT before the luminescence signal was measured on a FLUOstar® Omega plate reader. The obtained results were analyzed with the MARS data analysis software (BMG LabTech) and expressed as RLUs. For background correction, the RLUs detected for the background control (i.e., 10 µl of ATP monitoring reagent plus combined with 10 µl of cell lysis reagent) were subtracted from the measured RLUs values of all testing conditions.

[1] = test system: Nrf2-knockdown LUHMES cells; experiment: Cell viability in Nrf2-knockdown cells exposed to annonacin (calcein); type: cell-based, human; settings: Nrf2 siRNA, compound + 20 nM annonacin, 48 h
Experimental: The calcein AM green dye (Thermo Fisher Scientific) was diluted in DMSO to obtain a 1 mM stock solution. The stock solution was further diluted in HBSS (Hanks' balanced salt solution), immediately before incubation, to achieve a final working concentration of 1 μM in the well. The medium was removed, the cells were washed once with warm HBSS, and 200 µl of calcein working solution was added to each well. For background correction, 200 µl of calcein working solution was added to a well without cells (background control). After 30 min of incubation at 37 °C, the calcein solution was removed and the cells were washed once with HBSS. Cells were lysed in a 200 µl volume of 1% Triton™ X-100 in PBS (phosphate buffered saline) and the lysate transferred to a 96‐well black plate for the readout. The fluorescence signal was measured on a FLUOstar® Omega plate reader (BMG LabTech, Ortenberg, Germany) at λ Ex/Em = 485/530 nm and data was analyzed with the MARS data analysis software (BMG LabTech). For background correction, we subtracted the background control signal from the measured values of all experimental conditions. Data were expressed as percentage of viability relative to the control (DMSO-treated) condition.
LUHMES cells seeded on PLO/FN coated 48-well microplates were left to differentiate for 5 days, before being transfected with 25 nM of NRF2-targeting (gene ID 4780) or negative control siRNA (siTOOLs Biotech, Planegg, Germany), in Opti-MEM + GlutaMax medium (Thermo Fisher Scientific) with 0.4% of lipofectamine RNAiMax. After 24 h, the medium was removed and replaced with glucose-reduced medium for the pharmacological treatments, similar as described in the previous sections. Cell viability was determined by calcein assay, after 48 h of treatment, as explained before.

Compound | decrease of reduced-MTT compared with healthy control cells (LUHMES cells; 20 nM annonacin alone) | protective effects against annonacin toxicity in Nrf2-knockdown cells [1] | MTT reduction (LUHMES cells)
CCCCCCCCCCCC[C@@H](O)[C@H]1CC[C@H]([C@H](O)CCCC[C@H](O)CCCCC[C@@H](O)CC2=CC(C)OC2=O)O1 (stereo partly drawn) [annonacin] | 20% | – | –
O=C1[C@H](CC[C@H](O)c2ccc(F)cc2)[C@@H](c2ccc(O)cc2)N1c1ccc(F)cc1 [ezetimibe] | – | did not observe an abolishment of the neuroprotective effects | further decreased the amount of MTT reduction
C=CC(C)(C)c1cc(/C=C/C(=O)c2ccc(O)cc2)c(OC)cc1O [licochalcone A] | – | slightly attenuated in Nrf2-knockdown cells | further decreased the amount of MTT reduction
Cn1c(Nc2nc3ccc(C(F)(F)F)cc3s2)nc2cc(C(=O)NCCOCCO)ccc21 [HPP-D] | – | slightly attenuated in Nrf2-knockdown cells | –

— PMC11362529, “Exploring the neuroprotective potential of Nrf2-pathway activators against annonacin toxicity” (Scientific Reports, 2024)
